Counter-ions that a name gives are not always drawn.
How the values were obtained:
[1] = system: adjuvant arthritis (AA) of rats; experiment: anti-arthritic activity in the animal model of adjuvant arthritis (AA) of rats, foot swelling by drainage method; assay type: in vivo; design: key to The average swelling degree before administration (X ± s) / Average swelling degree after administration (X ± s): (toe volume after − before inflammation)/volume before; fraction; conditions: rat adjuvant arthritis; for The average swelling degree before administration (X ± s): foot swelling degree before administration (baseline); for The average swelling degree before administration (X ± s) / Average swelling degree after administration (X ± s): n=10; for Average swelling degree after administration (X ± s): gavage 50 μg/dose/day for consecutive 5 days
Protocol: The study on the anti-arthritic activity of the compounds of the present disclosure was conducted based on the animal model of adjuvant arthritis (AA) of rats and on the establishment of adjuvant arthritis of rats. The rats were divided into 14 groups, with 10 rats in each group, and the rats were administered by gavage the compound of the present disclosure, a blank control, and a positive control substance of Iguratimod at a dose of 50 μg/dose/day for consecutive 5 days. A drainage method was used to determine the degree of foot swelling in rats of each group before and after administration, and the degree of foot swelling in rats before and after administration was calculated to determine whether the drug was effective.
Foot swelling degree X=(volume of the toe after inflammation−volume of toe before inflammation)/volume of the toe before inflammation×100%.

healthy rats = experiment: content of aminotransferase in the serum of healthy rats after oral administration for 15 days; assay type: in vivo; conditions: for ALT / AST: serum of healthy rats, oral administration for 15 days, n=10
Protocol: Elevated aminotransferase is a common side effect of Iguratimod. To investigate whether the compounds of the present disclosure have effects on aminotransferase, healthy rats were administered orally the compound of the present disclosure and Iguratimod for 15 days, respectively, and then the content of aminotransferase in the serum of rats was determined.

CS(=O)(=O)Nc1cc2scc(NC=O)c(=O)c2cc1Oc1ccccc1 [Compound 1 potassium salt]
The average swelling degree before administration (X ± s) [1]: 0.455 ± 0.0279 | Average swelling degree after administration (X ± s) [1]: 0.020 ± 0.0323 | ALT (healthy rats): 126 ± 10.05 U/L | AST (healthy rats): 78 ± 8.74 U/L

CS(=O)(=O)Nc1cc2scc(NC=O)c(=O)c2cc1Oc1ccccc1 [Compound 1 sodium salt]
The average swelling degree before administration (X ± s) [1]: 0.450 ± 0.0284 | Average swelling degree after administration (X ± s) [1]: 0.023 ± 0.0306 | ALT (healthy rats): 129 ± 10.18 U/L | AST (healthy rats): 76 ± 9.22 U/L

CS(=O)(=O)Nc1cc2scc(NC=O)c(=O)c2cc1Oc1ccccc1 [Compound 1, 3-formamido-7-methylsulfonamido-6-phe noxy-4H-I-thiobenzopyran-4-one]
The average swelling degree before administration (X ± s) [1]: 0.453 ± 0.0290 | Average swelling degree after administration (X ± s) [1]: 0.020 ± 0.0335 | ALT (healthy rats): 125 ± 10.24 U/L | AST (healthy rats): 75 ± 8.22 U/L

CS(=O)(=O)Nc1cc2scc(NC=O)c(=O)c2cc1Sc1ccccc1 [Compound 2 potassium salt]
The average swelling degree before administration (X ± s) [1]: 0.453 ± 0.0290 | Average swelling degree after administration (X ± s) [1]: 0.021 ± 0.0335 | ALT (healthy rats): 109 ± 9.11 U/L | AST (healthy rats): 77 ± 9.02 U/L

CS(=O)(=O)Nc1cc2scc(NC=O)c(=O)c2cc1Sc1ccccc1 [Compound 2 sodium salt]
The average swelling degree before administration (X ± s) [1]: 0.448 ± 0.0291 | Average swelling degree after administration (X ± s) [1]: 0.020 ± 0.0325 | ALT (healthy rats): 104 ± 9.05 U/L | AST (healthy rats): 76 ± 9.56 U/L

CS(=O)(=O)Nc1cc2scc(NC=O)c(=O)c2cc1Sc1ccccc1 [Compound 2, 3-formamido-7-methylsulfonamido-6-phenylthio-4H-1-thiobenzopyran-4-one]
The average swelling degree before administration (X ± s) [1]: 0.430 ± 0.0312 | Average swelling degree after administration (X ± s) [1]: 0.019 ± 0.0315 | side effects (aminotransferase elevation) compared with Iguratimod (healthy rats; healthy rats, oral, conclusion in words): further weaker side effects | ALT (healthy rats): 108 ± 9.43 U/L | AST (healthy rats): 80 ± 9.28 U/L

CS(=O)(=O)Nc1cc2scc(NC=O)c(=O)c2cc1[S+]([O-])c1ccccc1 (stereo not drawn) [Compound 3 potassium salt]
The average swelling degree before administration (X ± s) [1]: 0.454 ± 0.0277 | Average swelling degree after administration (X ± s) [1]: 0.023 ± 0.0330 | ALT (healthy rats): 141 ± 7.89 U/L | AST (healthy rats): 89 ± 8.91 U/L

CS(=O)(=O)Nc1cc2scc(NC=O)c(=O)c2cc1[S+]([O-])c1ccccc1 (stereo not drawn) [Compound 3 sodium salt]
The average swelling degree before administration (X ± s) [1]: 0.438 ± 0.0229 | Average swelling degree after administration (X ± s) [1]: 0.022 ± 0.0333 | ALT (healthy rats): 140 ± 8.83 U/L | AST (healthy rats): 87 ± 9.06 U/L

CS(=O)(=O)Nc1cc2scc(NC=O)c(=O)c2cc1[S+]([O-])c1ccccc1 (stereo not drawn) [Compound 3]
The average swelling degree before administration (X ± s) [1]: 0.449 ± 0.0305 | Average swelling degree after administration (X ± s) [1]: 0.025 ± 0.0339 | ALT (healthy rats): 143 ± 7.83 U/L | AST (healthy rats): 90 ± 8.76 U/L

CS(=O)(=O)Nc1cc2scc(NC=O)c(=O)c2cc1S(=O)(=O)c1ccccc1 [Compound 4 potassium salt]
The average swelling degree before administration (X ± s) [1]: 0.418 ± 0.0198 | Average swelling degree after administration (X ± s) [1]: 0.019 ± 0.0274 | ALT (healthy rats): 132 ± 8.79 U/L | AST (healthy rats): 85 ± 6.87 U/L

CS(=O)(=O)Nc1cc2scc(NC=O)c(=O)c2cc1S(=O)(=O)c1ccccc1 [Compound 4 sodium salt]
The average swelling degree before administration (X ± s) [1]: 0.435 ± 0.0290 | Average swelling degree after administration (X ± s) [1]: 0.018 ± 0.0303 | ALT (healthy rats): 130 ± 9.15 U/L | AST (healthy rats): 83 ± 8.09 U/L

CS(=O)(=O)Nc1cc2scc(NC=O)c(=O)c2cc1S(=O)(=O)c1ccccc1 [Compound 4, N-(7-(methylsulfonamido)-4-oxo-6-(phenylsulfonyl)-4H-thiobenzopyran-3-yl)carboxamide]
anti-inflammatory effect compared with Iguratimod ([1]; conclusion in words): better anti-inflammatory effect | The average swelling degree before administration (X ± s) [1]: 0.425 ± 0.0247 | Average swelling degree after administration (X ± s) [1]: 0.017 ± 0.0305 | ALT (healthy rats): 133 ± 9.04 U/L | AST (healthy rats): 79 ± 9.82 U/L

CS(=O)(=O)Nc1cc2occ(NC=O)c(=O)c2cc1Oc1ccccc1 [Iguratimod, 3-formamido-7-methylsulfonamido-6-phenoxy-4H-1-benzopyran-4-one, reference compound]
The average swelling degree before administration (X ± s) [1]: 0.445 ± 0.0321 | Average swelling degree after administration (X ± s) [1]: 0.029 ± 0.0389 | ALT (healthy rats): 173 ± 9.86 U/L | AST (healthy rats): 145 ± 10.98 U/L

Source: patent US12110282B2, “Thiobenzopyrans and their use in preparation of drugs for treatment of rheumatoid arthritis” (HC SYNTHETIC PHARMACEUTICAL CO., LTD., priority 2020, dated 2024)
